The record followed here is patent US20110263693A1, “CELASTROL, GEDUNIN, AND DERIVATIVES THEREOF AS HSP90 INHIBITORS” (DANA-FARBER CANCER INSTITUTE, INC., priority 2006, published 2011).

Residues, ends and D or L forms follow the SMILES beside them. *: point of attachment. Cbz = O=C(OCc1ccccc1)*

The first assay has as its system celastrol signature. In words: Connectivity Map query with the celastrol signature. The class given is cell-based, human. Further details: key to celastrol score (connectivity score): connectivity score, based on Kolmogorov-Smirnov statistic. The conditions noted are these: enrichment of the celastrol signature (1.25 μM celastrol at 6 h, LNCaP) in the compound's Connectivity Map profiles; 6 hr treatment. An excerpt: (§1) Indeed, a major challenge in cell-based chemical biology and chemical genomics is the identification of compounds' targets (Gardner et al., 2003). We hypothesized that gene expression signatures could be used to identify compound action based on the similarity of such compound-induced signatures to signatures of existing drugs of known mechanism. We therefore employed a collection of gene expression profiles of drug-treated cell lines that was developed in our lab, termed the Connectivity Map (Lamb et al., 2006). This database comprises 453 genome-wide Affymetrix expression profiles derived from the treatment of human cell lines with 164 small molecules, primarily FDA-approved drugs. A 6 hr treatment time was chosen in an attempt to capture the primary, and potentially mechanistic, effects of the compounds rather than the downstream phenotypic consequences.
(§2) In order to use the Connectivity Map to gain insight into celastrol and gedunin function, we first defined a gene expression signature of celastrol and gedunin activity. The expression signatures of celastrol and gedunin were derived by expression profiling of RNA from LNCaP cells treated with celastrol (1.25 μM), gedunin (20 μM), and vehicle (DMSO) for 6 hr; signatures were defined using comparative marker selection to identify transcripts that distinguished between the compound- and vehicle-treated profiles by the signal-to-noise (SNR) metric. The enrichment of these signatures in the gene expression profiles of the Connectivity Map database was then assessed using a gene enrichment metric, the connectivity score, based on the Kolmogorov-Smirnov statistic (Lamb et al., 2003).
(§3) The celastrol and gedunin signatures were developed from RMA-processed microarray data from LNCaP cells treated with 1.25 μM celastrol or 20 μM gedunin for 6 hours. Comparative marker selection was used to identify markers that distinguished celastrol- and/or gedunin-treated samples from vehicle-treated samples by the median SNR (Golub et al., 1999). The top 50 markers that increased and decreased relative to vehicle-treated controls were used as the signatures.
(§4) The current version of the Connectivity Map data set (build01) contains genome-wide expression data for 453 treatment and vehicle control pairs, representing 164 distinct small molecules. Cell treatments and Affymetrix profiling were predominantly carried out in MCF7 cells with 6 hr treatments as detailed (Table 4) (Lamb et al., 2006). Enrichment of the induced and repressed genes of a signature within each Connectivity Map treatment profile was estimated with a metric based on the Kolmogorov-Smirnov statistic as described (Lamb et al., 2003, Lamb et al., 2006). Connectivity Map data are available at www.broad.mit.edu/cmap/ and GEO (accession number GSE5258).
(§5) For the celastrol and gedunin signatures, RMA-processed data was filtered and thresholded (min fold change=2, min absolute change=50, floor=10, ceiling=16000). Comparative marker selection (GenePattern) was used to identify markers that distinguished celastrol- and/or gedunin-treated samples from vehicle-treated samples by the median SNR. The top fifty markers that increased and decreased relative to vehicle treated controls were used as the celastrol, gedunin, or joint celastrol/gedunin signatures.
(§6) The current version of The Connectivity Map dataset (build01) contains genome-wide expression data for 453 treatment and vehicle control pairs, representing 164 distinct small molecules. Cell treatments were predominantly carried out in the MCF7 cell line for 6 h as detailed in Table 4. Affymetrix profiling was then carried out as described (Lamb et al., 2006).
Regarding `Nc1c(O)cccc1C(=O)CC(N)C(=O)O` (racemic) [3-hydroxy-DL-kynurenine], the “celastrol score (connectivity score)” value is 0.
For `CCCCCCCCCCCCCCCC(=O)N[C@H](CN1CCOCC1)[C@H](O)c1ccccc1` (racemic) [DL-PPMP], the “celastrol score (connectivity score)” value is recorded as 0.
The same measure, in the same setting: then `Oc1cc(O)c2c(c1)OC(c1ccc(O)c(O)c1)C(O)C2` (single isomer, unassigned; (-)) [(−)-catechin], with 0.
Regarding `Oc1cccc2c(O)nccc12` [1,5-isoquinolinediol], the “celastrol score (connectivity score)” value is reported as −0.608.
Consider `O=CC[C@@H](O)[C@H](O)[C@H](O)CO` [2-deoxy-D-glucose], for which the “celastrol score (connectivity score)” value is 0.
As for `NC(=O)c1cccc(N)c1` [3-aminobenzamide], the “celastrol score (connectivity score)” value is −0.587.
Take `O=C1NC(=O)c2cc(Nc3ccccc3)c(Nc3ccccc3)cc21` [4,5-dianilinophthalimide]: the “celastrol score (connectivity score)” value worked out at 0.
As to `CCCCC/C=C/C=C1/C(=O)C=C[C@@H]1C/C=C\CCCC(=O)O` [15-delta prostaglandin J2], the “celastrol score (connectivity score)” value was found to be 0.76.
Take `C[C@@H]1NC(=O)[C@H]2CCCN2C(=O)[C@H](CCCCCC(=O)[C@@H]2CO2)NC(=O)[C@@H](C)NC1=O` [HC toxin]: the “celastrol score (connectivity score)” value was found to be 0.
For the molecule `CC(=O)OCOC(c1ccc2ccccc2c1)P(=O)(OCOC(C)=O)OCOC(C)=O` (stereo not shown) [HNMPA-(AM)3], the “celastrol score (connectivity score)” value worked out at 0.
Consider `O=c1cc(N2CCOCC2)oc2c(-c3ccccc3)cccc12` [LY-294002], for which the “celastrol score (connectivity score)” value is −0.512.
Take `CC(C)C[C@@H](C=O)NC(=O)[C@H](CC(C)C)NC(=O)[C@H](CC(C)C)NC(=O)OCc1ccccc1` [MG-132] (Cbz-Leu-Leu-Leu-aldehyde): the “celastrol score (connectivity score)” value turned out to be 0.902.
Same read-out and setting: then `CC(C)c1ccc2c(c1)c(SC(C)(C)C)c(CC(C)(C)C(=O)O)n2Cc1ccc(Cl)cc1` [MK-886], with 0; and `O=C(O)c1ccccc1Nc1ccccc1` [N-phenylanthranilic acid], with 0; and `Cc1nc2c(O)cccc2c(=O)[nH]1` [NU-1025], with −0.362.
As to `CS(=O)(=O)c1ccc(-n2nc(C(F)(F)F)cc2-c2ccc(F)cc2)cc1` [SC-58125], the “celastrol score (connectivity score)” value was −0.112.

Staying with this assay, now noted: rank by celastrol score among 164 Connectivity Map compounds.
Consider `Nc1c(O)cccc1C(=O)CC(N)C(=O)O` (racemic) [3-hydroxy-DL-kynurenine], for which the celastrol rank amounted to 136.
`CCCCCCCCCCCCCCCC(=O)N[C@H](CN1CCOCC1)[C@H](O)c1ccccc1` (racemic) [DL-PPMP]: the celastrol rank came to 138.
In turn, `Oc1cc(O)c2c(c1)OC(c1ccc(O)c(O)c1)C(O)C2` (single isomer, unassigned; (-)) [(−)-catechin] displayed a celastrol rank of 113.
Still for that read-out and setting: in the case of `CCCCC/C=C/C=C1/C(=O)C=C[C@@H]1C/C=C\CCCC(=O)O` [15-delta prostaglandin J2] it was 7; in that of `C[C@@H]1NC(=O)[C@H]2CCCN2C(=O)[C@H](CCCCCC(=O)[C@@H]2CO2)NC(=O)[C@@H](C)NC1=O` [HC toxin], 90; in that of `CC(=O)OCOC(c1ccc2ccccc2c1)P(=O)(OCOC(C)=O)OCOC(C)=O` (stereo not shown) [HNMPA-(AM)3], 103.
On the same count and under the same terms, then `CC(C)c1ccc2c(c1)c(SC(C)(C)C)c(CC(C)(C)C(=O)O)n2Cc1ccc(Cl)cc1` [MK-886], with 94.
The molecule `Cc1nc2c(O)cccc2c(=O)[nH]1` [NU-1025] displayed a celastrol rank of 156.

The next assay deals with gedunin signature. The assay is described as follows: Connectivity Map query with the gedunin signature. The note with it: enrichment of the gedunin signature (20 μM gedunin at 6 hours, LNCaP) in the compound's Connectivity Map profiles; 6 hr treatment. On the set-up: key to gedunin score (connectivity score): connectivity score, based on Kolmogorov-Smirnov statistic. The class given is cell-based, human.
From the text: as §1, §2, §3, §4, §5, §6
`Nc1c(O)cccc1C(=O)CC(N)C(=O)O` (racemic) [3-hydroxy-DL-kynurenine]: the “gedunin score (connectivity score)” value is 0.
Turning to `CCCCCCCCCCCCCCCC(=O)N[C@H](CN1CCOCC1)[C@H](O)c1ccccc1` (racemic) [DL-PPMP], the “gedunin score (connectivity score)” value was 0.
Take `Oc1cc(O)c2c(c1)OC(c1ccc(O)c(O)c1)C(O)C2` (single isomer, unassigned; (-)) [(−)-catechin]: the “gedunin score (connectivity score)” value was 0.457.
For `Oc1cccc2c(O)nccc12` [1,5-isoquinolinediol], the “gedunin score (connectivity score)” value stood at 0.
On to `O=CC[C@@H](O)[C@H](O)[C@H](O)CO` [2-deoxy-D-glucose], for which the “gedunin score (connectivity score)” value came out at 0.378.
In the case of `NC(=O)c1cccc(N)c1` [3-aminobenzamide], the “gedunin score (connectivity score)” value was 0.
The same measure, in the same setting: in the case of `O=C1NC(=O)c2cc(Nc3ccccc3)c(Nc3ccccc3)cc21` [4,5-dianilinophthalimide] it was 0; in that of `CCCCC/C=C/C=C1/C(=O)C=C[C@@H]1C/C=C\CCCC(=O)O` [15-delta prostaglandin J2], 0.565.
In the case of `C[C@@H]1NC(=O)[C@H]2CCCN2C(=O)[C@H](CCCCCC(=O)[C@@H]2CO2)NC(=O)[C@@H](C)NC1=O` [HC toxin], the “gedunin score (connectivity score)” value was determined as 0.526.
As for `CC(=O)OCOC(c1ccc2ccccc2c1)P(=O)(OCOC(C)=O)OCOC(C)=O` (stereo not shown) [HNMPA-(AM)3], the “gedunin score (connectivity score)” value came to 0.365.
Turning to `O=c1cc(N2CCOCC2)oc2c(-c3ccccc3)cccc12` [LY-294002], the “gedunin score (connectivity score)” value came out at 0.
`CC(C)C[C@@H](C=O)NC(=O)[C@H](CC(C)C)NC(=O)[C@H](CC(C)C)NC(=O)OCc1ccccc1` [MG-132] (Cbz-Leu-Leu-Leu-aldehyde): the “gedunin score (connectivity score)” value stood at 0.912.
On to `CC(C)c1ccc2c(c1)c(SC(C)(C)C)c(CC(C)(C)C(=O)O)n2Cc1ccc(Cl)cc1` [MK-886], for which the “gedunin score (connectivity score)” value is recorded as −0.336.
Turning to `O=C(O)c1ccccc1Nc1ccccc1` [N-phenylanthranilic acid], the “gedunin score (connectivity score)” value is recorded as −0.472.
On to `Cc1nc2c(O)cccc2c(=O)[nH]1` [NU-1025], for which the “gedunin score (connectivity score)” value is on record as −0.222.
On to `CS(=O)(=O)c1ccc(-n2nc(C(F)(F)F)cc2-c2ccc(F)cc2)cc1` [SC-58125], for which the “gedunin score (connectivity score)” value stood at 0.09.
For the molecule `CN1CCN(CCCN2c3ccccc3Sc3ccc(C(F)(F)F)cc32)CC1` [trifluoperazine, reference compound], the “gedunin score (connectivity score)” value is on record as 0.559.

Staying with this assay, now noted: rank by gedunin score among 164 Connectivity Map compounds.
Regarding `Nc1c(O)cccc1C(=O)CC(N)C(=O)O` (racemic) [3-hydroxy-DL-kynurenine], the gedunin rank was 96.
Molecule `CCCCCCCCCCCCCCCC(=O)N[C@H](CN1CCOCC1)[C@H](O)c1ccccc1` (racemic) [DL-PPMP] displayed a gedunin rank of 110.
On the same count and under the same terms, in the case of `Oc1cc(O)c2c(c1)OC(c1ccc(O)c(O)c1)C(O)C2` (single isomer, unassigned; (-)) [(−)-catechin] it was 24; in that of `CCCCC/C=C/C=C1/C(=O)C=C[C@@H]1C/C=C\CCCC(=O)O` [15-delta prostaglandin J2], 9; in that of `C[C@@H]1NC(=O)[C@H]2CCCN2C(=O)[C@H](CCCCCC(=O)[C@@H]2CO2)NC(=O)[C@@H](C)NC1=O` [HC toxin], 15.
Take `CC(=O)OCOC(c1ccc2ccccc2c1)P(=O)(OCOC(C)=O)OCOC(C)=O` (stereo not shown) [HNMPA-(AM)3]: the gedunin rank is 36.
Consider `CC(C)c1ccc2c(c1)c(SC(C)(C)C)c(CC(C)(C)C(=O)O)n2Cc1ccc(Cl)cc1` [MK-886], for which the gedunin rank is on record as 155.
In turn, `Cc1nc2c(O)cccc2c(=O)[nH]1` [NU-1025] displayed a gedunin rank of 152.
